Where two headings read alike, the source gives them in different places.
Experiment: Phase 1b study in female adults with cystitis, plasma PK
Type: in vivo, human
Conditions: plasma, plasma; for half-life / AUC(0-t) / Cmax / concentration at 5 day / Tmax: female, human
Protocol: According to the study design, a randomized (1:1:1), open-label, parallel designed Phase 1b study comparing 3 dosing regimens of Compound 1 (9-[(2,2-dimethyl-propyl amino)-methyl-minocycline) in the treatment of female adults with cystitis was conducted. About 31 female patients with uncomplicated urinary tract infection (cystitis) who met inclusion and exclusion criteria were enrolled at 2-4 U.S. treatment centers. All enrolled subjects participated in the study for approximately 5-6 weeks. Following Screening of up to 48 hrs, eligible subjects were randomly assigned to receive one of 3 dosing regimens of Compound 1 treatment as shown below. Subjects in all treatment groups were domiciled for a 5-day treatment period. Details of the study are further described below.
Subjects were randomized (1:1:1) to one of the following treatment arms: • 1. Group 1: IV load, p.o. daily (200 mg Compound 1 IV every 24 hours (q24h) for 1 dose, followed by 300 mg p.o. q24h for a total of 5 days); • 2. Group 2: p.o. load, p.o. daily (300 mg Compound 1 p.o. every 12 hours (q12h) for 2 doses, followed by 300 mg p.o. q24h for a total of 5 days); • 3. Group 3: high p.o. load, high p.o. daily (450 mg Compound 1 p.o. q12h for 2 doses, followed by 450 mg p.o. q24h for a total of 5 days).
Blood samples were collected and analyzed for Compound 1 concentration at the following times. Pre-dose blood PK evaluations were based on blood samples collected within 10 min of each start (e.g., t=0 h dose for Day 1, t=24 h dose for Day 2, etc.). • Day 1: Pre-dose, and 0.75, 1, 2, 3, 4, 6, 8 and 12 hours after the t=0 h dose (12 h sample before the t=12 h dose for Groups 2 and 3); • Day 2: prior to the t=24 h dose; • Day 3: prior to the t=48 h dose; • Day 4: prior to the t=72 h dose; • Day 5: Pre-dose, and 0.5, 1, 2, 3, 4, 6, 8 and 12 hours after the t=96 h dose • Day 6: at t=120 h (24 hours after the t=96 h dose on Day 5)
Following the final oral doses on Day 5 the Compound 1 plasma concentration-time data for Groups 1, 2 and 3 were used to determine Cmax, Tmax, AUC24h, AUCt. Trough plasma concentrations (Ctrough) following each dose (Days 2 to 6) were also determined.
Blood samples for PK are collected at the time points specified below. • Day 1: Predose, and 0.75, 1, 2, 3, 4, 6, 8 and 12 hours after the t=0 h dose (12 h sample before the t=12 h dose for Groups 2 and 3); • Day 2: prior to the t=24 h dose; • Day 3: prior to the t=48 h dose; • Day 4: prior to the t=72 h dose; • Day 5: Predose, and 0.5, 1, 2, 3, 4, 6, 8 and 12 hours after the t=96 h dose • Day 6: at t=120 h (24 hours after the t=96 h dose on Day 5)
Blood was collected either by fresh venipuncture or via a cannula used solely for that purpose. The dates and times for all doses of test article and PK sample collections were recorded. For intravenously administered doses of test article, the start and stop times for each infusion were recorded. Immediately after the sample was collected, the tube was gently inverted 5 to 8 times to thoroughly mix the anticoagulant and then placed upright in a cryoblock or test tube rack surrounded by ice until centrifugation. Samples were centrifuged at 1500×g for 10 minutes at approximately 4° C. within 30 minutes of collection. The resultant plasma was divided into 2 equal aliquots, placed in individual cryovials, and immediately frozen at −20° C. or colder within 1 hour of collection. The samples were kept frozen at −20° C. or colder pending shipment to the bioanalytical laboratory.
The Compound 1 plasma concentration data was listed and summarized by time point and treatment group. The following PK parameters were estimated from the Compound 1 plasma concentration-time data: […]

What does the source list for `CN(C)c1cc(CNCC(C)(C)C)c(O)c2c1C[C@H]1C[C@H]3[C@H](N(C)C)C(O)=C(C(N)=O)C(=O)[C@@]3(O)C(O)=C1C2=O` [Compound 1, 9-[(2,2-dimethyl-propylamino)-methyl]-minocycline]?
half-life (oral, 300 mg, Day 5, IV_PO300, read-out: T½, Mean (converted)): 13.8 h; half-life (oral, 300 mg, Day 5, IV_PO300, read-out: T½, Median (converted)): 12.1 h; AUC(0-t) (oral, 300 mg, Day 5, PO300, read-out: AUC(0-24 hrs), Geo. Mean): 12400 ng·h/mL; AUC(0-t) (oral, 300 mg, Day 5, PO300, read-out: AUC(0-24 hrs), Mean): 13500 ng·h/mL; AUC(0-t) (oral, 300 mg, Day 5, PO300, read-out: AUC(0-24 hrs), Median): 13400 ng·h/mL; Cmax (oral, 300 mg, Day 5, PO300, read-out: Cmax, Geo. Mean): 999 ng/mL; Cmax (oral, 300 mg, Day 5, PO300, read-out: Cmax, Mean): 1120 ng/mL; Cmax (oral, 300 mg, Day 5, PO300, read-out: Cmax, Median): 1070 ng/mL; concentration at 5 day (oral, 300 mg, Day 5, PO300, read-out: Ctrough, Geo. Mean): 293 ng/mL; concentration at 5 day (oral, 300 mg, Day 5, PO300, read-out: Ctrough, Mean): 319 ng/mL; concentration at 5 day (oral, 300 mg, Day 5, PO300, read-out: Ctrough, Median): 315 ng/mL; Tmax (oral, 300 mg, Day 5, PO300, read-out: Tmax, Geo. Mean): 3.61 h; Tmax (oral, 300 mg, Day 5, PO300, read-out: Tmax, Mean): 3.9 h; Tmax (oral, 300 mg, Day 5, PO300, read-out: Tmax, Median): 3 h; AUC(0-t) (oral, 450 mg, Day 1, PO450, read-out: AUC(0-12 hrs), Geo. Mean): 6690 ng·h/mL; AUC(0-t) (oral, 450 mg, Day 1, PO450, read-out: AUC(0-12 hrs), Mean): 6850 ng·h/mL; AUC(0-t) (oral, 450 mg, Day 1, PO450, read-out: AUC(0-12 hrs), Median): 6650 ng·h/mL; Cmax (oral, 450 mg, Day 1, PO450, read-out: Cmax, Geo. Mean): 948 ng/mL; Cmax (oral, 450 mg, Day 1, PO450, read-out: Cmax, Mean): 987 ng/mL; Cmax (oral, 450 mg, Day 1, PO450, read-out: Cmax, Median): 947 ng/mL; Tmax (oral, 450 mg, Day 1, PO450, read-out: Tmax, Geo. Mean): 2.21 h; Tmax (oral, 450 mg, Day 1, PO450, read-out: Tmax, Median): 3 h; AUC(0-t) (oral, 450 mg, Day 5, PO450, read-out: AUC(0-24 hrs), Geo. Mean): 18700 ng·h/mL; AUC(0-t) (oral, 450 mg, Day 5, PO450, read-out: AUC(0-24 hrs), Mean): 19800 ng·h/mL; AUC(0-t) (oral, 450 mg, Day 5, PO450, read-out: AUC(0-24 hrs), Median): 21600 ng·h/mL; Cmax (oral, 450 mg, Day 5, PO450, read-out: Cmax, Geo. Mean): 1360 ng/mL; Cmax (oral, 450 mg, Day 5, PO450, read-out: Cmax, Mean): 1490 ng/mL; Cmax (oral, 450 mg, Day 5, PO450, read-out: Cmax, Median): 1640 ng/mL; concentration at 5 day (oral, 450 mg, Day 5, PO450, read-out: Ctrough, Geo. Mean): 462 ng/mL; concentration at 5 day (oral, 450 mg, Day 5, PO450, read-out: Ctrough, Mean): 484 ng/mL; concentration at 5 day (oral, 450 mg, Day 5, PO450, read-out: Ctrough, Median): 503 ng/mL; Tmax (oral, 450 mg, Day 5, PO450, read-out: Tmax, Geo. Mean): 2.64 h; Tmax (oral, 450 mg, Day 5, PO450, read-out: Tmax, Mean): 3.36 h; Tmax (oral, 450 mg, Day 5, PO450, read-out: Tmax, Median): 3.02 h; Tmax (po, 300 mg, Day 1, 300 mg po (n = 10), median, read-out: tmax): 3 h; Cmax (po, 300 mg, Day 5, 300 mg po (n = 10), mean, read-out: Cmax): 1120 ng/mL; Tmax (po, 300 mg, Day 5, 300 mg po (n = 10), median, read-out: tmax): 3 h; AUC(0-t) (po, 450 mg, Day 1, 450 mg po (n = 10), mean, read-out: AUC0-12): 6850 ng·h/mL; Tmax (po, 450 mg, Day 1, 450 mg po (n = 10), median, read-out: tmax): 3 h; Cmax (po, 450 mg, Day 1, 450 mg po (n = 10), mean, read-out: Cmax): 990 ng/mL; AUC(0-t) (po, 450 mg, Day 5, 450 mg po (n = 10), mean, read-out: AUC0-24): 19800 ng·h/mL; Cmax (po, 450 mg, Day 5, 450 mg po (n = 10), mean, read-out: Cmax): 1490 ng/mL; Tmax (po, 450 mg, Day 5, 450 mg po (n = 10), median, read-out: tmax): 3 h; Lambda Z, Geo. Mean (Day 1, IV_PO300): 0.0614 h⁻¹; Lambda Z, Mean (Day 1, IV_PO300): 0.0620 h⁻¹; Lambda Z, Median (Day 1, IV_PO300): 0.0605 h⁻¹; Tmax, Mean (Day 1, PO450): 2.492 h; Lambda Z, Geo. Mean (Day 5, IV_PO300): 0.0526 h⁻¹; Lambda Z, Mean (Day 5, IV_PO300): 0.0545 h⁻¹; Lambda Z, Median (Day 5, IV_PO300): 0.0574 h⁻¹

Source: US10238670B2, “9-aminomethyl minocycline compounds and methods of use thereof in urinary tract infection (UTI) treatment” (Paratek Pharmaceuticals, Inc., priority 2016, dated 2019)
